In patent US11185068B2, “Diluent for sperm and method for preserving sperm using same” (Livestock Improvement Association of Japan, Inc., priority 2016, dated 2021):

System: thawed bovine sperm
Procedure: Semen collected from a breeding bull kept at Livestock Improvement Association of Japan was diluted with primary and secondary diluents prepared in the same manner as in Example 1 except that 30 g of fructo-oligosaccharide or 30 g of isomalto-oligosaccharide was added. The semen was diluted so that the final concentration of glycerin was 7%, thereby obtaining diluted sperm solutions. As a control group with soybean lecithin and devoid of fructo-oligosaccharide and isomalto-oligosaccharide, semen was diluted with the diluent described in Example 1 of Patent Document 4, the diluent having a final glycerin concentration of 7%. As a control group with egg yolk and devoid of fructo-oligosaccharide and isomalto-oligosaccharide, semen was diluted with the diluent described in Patent Document 1, produced and sold by Livestock Improvement Association of Japan for preparation of frozen semen, the diluent having a final glycerin concentration of 6.5%. Semen was diluted with each of these diluents so that the diluted semen contained 80 million sperm per ml. The second diluent was added to the primarily diluted semen at a ratio of 1:1 so that the semen contained 40 million sperm per ml. Straws for artificial insemination were then prepared by conventional methods. Cryopreservation was performed using liquid nitrogen by conventional methods. […]

Row | Substance | adverse influence on the oocyte penetration ability of sperm and the development ability of fertilized embryo
1 | fructo-oligosaccharide | substantially no adverse influence
2 | isomalto-oligosaccharide | substantially no adverse influence
